This is an account of results in article PMC12602806, “Itaconate reduces viral endocytosis by targeting Cys128 of the adaptor-related protein complex 1 gamma 1 subunit in the host, providing a novel target for antiviral drug development” (Molecular Biomedicine, 2025).

The target in this assay is T1, AP1G1 (Homo sapiens, UniProt O43747).
T1 construct: endogenous full-length AP1G1 in BEAS-2B cells or lysate; untagged
T1 sequence (O43747 1-822): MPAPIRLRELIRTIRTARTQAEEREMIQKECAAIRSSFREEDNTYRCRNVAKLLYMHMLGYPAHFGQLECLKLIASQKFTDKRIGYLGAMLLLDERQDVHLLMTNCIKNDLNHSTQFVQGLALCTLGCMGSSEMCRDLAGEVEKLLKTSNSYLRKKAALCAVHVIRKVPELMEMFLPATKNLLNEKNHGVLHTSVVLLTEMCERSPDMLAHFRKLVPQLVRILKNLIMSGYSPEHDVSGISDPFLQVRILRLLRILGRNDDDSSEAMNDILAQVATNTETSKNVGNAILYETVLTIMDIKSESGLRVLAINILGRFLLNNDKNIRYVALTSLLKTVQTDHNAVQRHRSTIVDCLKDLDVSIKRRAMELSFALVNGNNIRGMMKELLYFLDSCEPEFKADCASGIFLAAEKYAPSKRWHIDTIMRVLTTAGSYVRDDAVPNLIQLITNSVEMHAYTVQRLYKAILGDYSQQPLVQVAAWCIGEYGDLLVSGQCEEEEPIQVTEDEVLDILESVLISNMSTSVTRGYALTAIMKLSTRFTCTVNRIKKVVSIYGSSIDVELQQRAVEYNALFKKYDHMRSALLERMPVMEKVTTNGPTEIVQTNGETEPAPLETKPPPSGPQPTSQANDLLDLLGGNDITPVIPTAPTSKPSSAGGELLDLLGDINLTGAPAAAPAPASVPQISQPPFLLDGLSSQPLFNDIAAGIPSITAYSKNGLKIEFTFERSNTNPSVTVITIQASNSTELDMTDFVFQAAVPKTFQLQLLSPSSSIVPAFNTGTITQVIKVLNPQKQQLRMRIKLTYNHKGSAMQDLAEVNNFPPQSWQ
Description: CETSA-Western blot. To be noted: 40-65 ℃; covalent; Cys128; also competes with ITAP in BEAS-2B lysate. It counts as cell-based.

Consider `C=C(CC(=O)O)C(=O)O` [itaconate], for which the CETSA-Western blot result is listed as “Itaconate treatment significantly altered the thermal stability of AP1G1”.
